{"source": "patent US12397059B2", "about": "“Compounds and methods for the treatment and prevention of fibrotic disease states and cancer” (Purdue Research Foundation, priority 2019, dated 2025)", "key": {"healthy mice": {"system": "healthy mice", "assay": "Plasma cytokine levels in healthy mice after tail vein injection", "type": "in vivo", "experimental": "(FIGS. 20A-C) Measurement of plasma IL-6 (FIG. 20A), IFNα (FIG. 20B) and TNFα (FIG. 20C) (n=3). (FIGS. 20D-F). The effect of drug concentration on plasma levels of IL-6 (FIG. 20D), IFNα (FIG. 20E), and TNFα (FIG. 20F) was determined at 1.5 h, 1 h, or 1 h after treatment, respectively (n=2) (FIG. 20G)."}, "[1]": {"system": "M2-induced THP-1 macrophages", "assay": "Secreted CCL18 and IL-1β in THP-1 supernatants by ELISA", "type": "cell-based, human", "experimental": "FIGS. 6A-6D show graphical data representative of various marker levels measured from M2-induced THP-1 macrophages treated with different concentrations of drugs for 48 hours (FIGS. 6A and 6B) or for 2 hours, then displaced with fresh medium and cultured for the remaining 46 hours (FIGS. 6C and 6D). In both cases, cell supernatants were collected and secreted CCL18 protein and IL-1β was detected by ELISA.\nFurther, to ensure that the above mRNA analyses accurately reflected the levels of profibrotic cytokines produced by IL-4, IL-6 plus IL-13 stimulated THP-1 cells, the concentrations of CCL18 and IL-1β polypeptides in the THP-1 supernatants were quantitated by ELISA assay.\n(§1) CCL18 and IL-1β were quantified in induced THP-1 cell supernatants using a human DuoSet ELISA Development System (R&D Systems Europe, Abingdon, UK; #DY394-05) and an IL-1 beta Human ELISA Kit (Thermo Fisher Scientific, Waltham, MA; #BMS224-2) as described by manufactures."}, "[2]": {"assay": "Stability during incubation in culture media", "type": "physicochemical", "settings": "37° C. in the culture media, 48 hours", "experimental": "Indeed, Compound 1B retained the original structure after 48 hours incubation."}, "[3]": {"system": "M2-induced human monocyte-derived macrophages", "assay": "Reprogramming of M2-induced human monocyte-derived macrophages with FA-glucosamine competition", "type": "cell-based", "settings": "100 nM, 2 hours then 46 hours without drug", "experimental": "Changes in both sets of cytokines were inhibited by blockade of unoccupied folate receptors with excess FA-glucosamine (2+46 h, competition)."}, "[4]": {"system": "BM-induced experimental pulmonary fibrosis in mice", "assay": "BM-induced pulmonary fibrosis: markers in bronchoalveolar lavage cells/fluid (qPCR, ELISA)", "type": "in vivo", "experimental": "Fresh water and folate-deficient diet were freely available.\nBronchoalveolar lavage fluid (BALF) was then analyzed to determine how the targeted TLR7 agonist works. BALF samples were centrifuged at 1500 rpm for 5 min at 4° C. and the supernatant was aliquoted and stored at −80° C. for cytokine/chemokine analyses. Cell pellets were resuspended and cultured in pre-warmed RPMI 1640 medium for 2 hours and then washed 3× with pre-warmed PBS prior to harvesting for qPCR assay. The right lung was then tied with a nylon string and used for subsequent analysis of hydroxyproline content. The left lung was inflated with 1 ml PBS using the inserted syringe and transferred to 10% formalin solution for subsequent histological analyses.\nas §1, with “manufactures. BALF samples were analyzed for mouse IFN-γ using ELISA MAX™ Deluxe (Biolegend, San Diego, CA; #430804).” for “manufactures.”"}, "[5]": {"system": "THP-1 cells polarized to M2-like macrophages", "assay": "Reprogramming of M2-like THP-1 macrophages, marker gene analysis by qPCR", "type": "cell-based, human", "experimental": "THP-1 cells were seeded into 96-well plates at a density of 60,000 cells/well. Cells were differentiated into unpolarized macrophages by 48 hours incubation with 200 nM PMA followed by 24 hours incubation in fresh RPMI medium. […] Cultures were maintained at 37° C. in a humidified 5% CO2 incubator.\nTotal RNA was isolated from 1×10^5 —2×10^5 macrophages using a Quick-RNA™ MicroPrep kit (Zymo Research, Irvine, CA) according to the manufacturer-recommended protocol. […] IL-6, CXCL10, IFNα, IFN-γ and CD86 were used as markers for an M1 phenotype, while CCL18, CD206, CD163 and Arg1 were employed as markers for the M2 phenotype. IL-1β, PDGFβ, MMP9 and TIMP 3 were measured as indicators of a profibrotic phenotype. IRAK-4 was used as an indicator of TLR7 stimulation. To control for specificity of the amplification products, a melting curve analysis was performed. […] Each sample was analyzed independently in triplicate for each marker.\nPrimarily, human monocytic (THP-1) cells were induced to the M2-like phenotype using the methods and materials previously described. In particular, THP-1 cells were seeded into 96-well plates at a density of 60,000 cells/well. Cells were differentiated into unpolarized macrophages by 48 h incubation with 200 nM PMA followed by 24 hours incubation in fresh RPMI medium. The resulting macrophages were polarized to an M2-like phenotype by incubation with 20 ng/ml IL-4, 20 ng/ml IL-13, and 5 ng/mL IL-6 for 48 h. Cultures were maintained at 37° C. in a humidified 5% CO2 incubator.\nIn addition to the nonconjugated TLR7 agonist, conjugated compounds of the present disclosure were likewise evaluated. […] The cells were subsequently harvested for gene analysis by qPCR and the relative expression of CCL18 (FIG. 14A), CD206 (FIG. 14B), and IL-1β (FIG. 14C) analyzed."}, "[6]": {"settings": "incubated continuously for 48 hours, ELISA"}, "[7]": {"settings": "BALF cells day 21, i.v. every other day from day 10"}, "[8]": {"settings": "2 hours with drug, then drug-free medium"}, "[9]": {"settings": "incubated 2 hours, harvested at once or after a further 46 hours"}}, "note": "“Also recorded” adds a separate entry of the source."}
{"smiles": "CCCCc1nc2c(N)nc3ccccc3c2n1CC(C)(C)OC(=O)OCCSSCC(NC(=O)CCC(NC(=O)c1ccc(NCc2cnc3nc(N)[nH]c(=O)c3n2)cc1)C(=O)O)C(=O)O", "note": "(centres unmarked) [Compound 1B]", "values": [{"measurement": "systemic cytokine release (plasma IL-6, IFNα, TNFα)", "setting": "healthy mice; 10 nmol tail vein", "value": "does not"}, {"measurement": "inflammatory cytokine release, dose comparison", "setting": "healthy mice; effect of drug concentration", "value": "stimulates less inflammatory cytokine release than half the dose of Compound 1A"}, {"measurement": "reduction of secreted CCL18 and IL-1β, comparison of the two agonists", "setting": "[1]; drug exposure limited to 2 hours, then 46 hours fresh medium", "value": "superior"}, {"measurement": "secreted CCL18 protein", "setting": "[1]; [6]", "value": "reductions"}, {"measurement": "secreted IL-1β", "setting": "[1]; [6]", "value": "reductions"}, {"measurement": "stability during incubation", "setting": "[2]", "value": "remained stable"}, {"measurement": "downregulation of biomarkers in presence of excess FA-glucosamine (competitor)", "setting": "[3]", "value": "blocked"}, {"measurement": "CD86 transcripts (antifibrotic marker, qPCR)", "setting": "[4]; BALF cells day 21", "value": "upregulated; also recorded: elevated"}, {"measurement": "IRAK-4", "setting": "[4]; BALF cells day 21", "value": "upregulated; also recorded: upregulation"}, {"measurement": "Arg1 (profibrotic marker, qPCR)", "setting": "[4]; [7]", "value": "downregulated; also recorded: suppressed"}, {"measurement": "MMP9 (profibrotic marker, qPCR)", "setting": "[4]; [7]", "value": "downregulated; also recorded: suppressed"}, {"measurement": "TIMP 3 (profibrotic marker, qPCR)", "setting": "[4]; [7]", "value": "downregulated; also recorded: suppressed"}, {"measurement": "IFN-γ concentration (ELISA of lavage fluid)", "setting": "[4]; day 21", "value": "upregulated; also recorded: elevated"}, {"measurement": "total number of BALF cells", "setting": "[4]; different doses", "value": "decreased in a dose-dependent manner"}, {"measurement": "TNFα induction", "setting": "[5]; [8]", "value": "dramatically improved"}, {"measurement": "potency relative to Compound 1A", "setting": "[5]; [8]", "value": "superior potency relative to Compound 1A"}, {"measurement": "marker changes (FIGS. 3A-3F) compared with nontargeted TLR7 agonist", "setting": "[5]; M2-induced THP-1, 48 hours incubation", "value": "same qualitative changes were observed, only the magnitude of the impact of Compound 1B was somewhat reduced"}, {"measurement": "PDGFα", "setting": "[5]; data not shown", "value": "no significant difference"}, {"measurement": "M1-like phenotype (CD86 mRNA, TNFα levels)", "setting": "[5]; [9]", "value": "upregulated"}, {"measurement": "profibrotic/M2-type markers (CCL18, CD206, IL-1β, PDGFβ mRNA)", "setting": "[5]; [9]", "value": "downregulated profibrotic/M2-type markers of macrophages more than Compound 1A"}]}
